Reference: the NIST ThermoML archive (doi:10.1021/acs.jced.6b00655)
“And” between values parts separate entries of the source, which are not always exact repeats. Identical values can stand only once.

Assays:
[1] = xn = mol fraction of the nth substance listed; details: 100 kPa, Liquid, Vibrating tube method
[2] = 100 kPa, Liquid, Vibrating tube method

CCCC[N+]1(C)CCCC1.O=S(=O)([O-])C(F)(F)F [1-butyl-1-methylpyrrolidinium trifluoromethanesulfonate] + Cc1ccccc1
[1], 283.15 K
Details	mass density [kg/m3]
x2 = 0	1263.17
x2 = 0.052	1255.13
x2 = 0.102	1246.47
x2 = 0.221	1223.94
x2 = 0.313	1203.6
x2 = 0.4	1181.98
x2 = 0.516	1147.19
x2 = 0.579	1124.97

CCCC[N+]1(C)CCCC1.O=S(=O)([O-])C(F)(F)F [1-butyl-1-methylpyrrolidinium trifluoromethanesulfonate] + CCc1ccccc1
[1], 283.15 K
Details	mass density [kg/m3]
x2 = 0	1263.17
x2 = 0.044	1254.99
x2 = 0.107	1240.68
x2 = 0.209	1220.18
x2 = 0.309	1193.98
x2 = 0.391	1174.45
x2 = 0.42	1164.28

CCCC[N+](C)(CCCC)CCCC.O=S(=O)([N-]S(=O)(=O)C(F)(F)F)C(F)(F)F [tributylmethylammonium bis((trifluoromethyl)sulfonyl)imide] + Cc1ccc(C)cc1
[1], 343.15 K
Details	mass density [kg/m3]
x2 = 0	1224.15
x2 = 0.106	1209.82
x2 = 0.257	1187.07
x2 = 0.37	1163.42
x2 = 0.459	1143.06
x2 = 0.552	1114.23
x2 = 0.7	1057.46

CCCC[N+](C)(C)C.O=S(=O)([N-]S(=O)(=O)C(F)(F)F)C(F)(F)F [butyltrimethylammonium bis(trifluoromethylsulfonyl)imide] + Cc1ccccc1
[1], 343.15 K
Details	mass density [kg/m3]
x2 = 0	1346.21
x2 = 0.1	1333.19
x2 = 0.202	1310.32
x2 = 0.316	1279.85
x2 = 0.404	1252.66
x2 = 0.502	1211.78
x2 = 0.61	1167.51
x2 = 0.643	1150.47

CCCC[N+](C)(CCCC)CCCC.O=S(=O)([N-]S(=O)(=O)C(F)(F)F)C(F)(F)F [tributylmethylammonium bis((trifluoromethyl)sulfonyl)imide]
Details	mass density
[2], 343.15 K	1224.15 kg/m3 and 1224.18 kg/m3

CCCC[N+](C)(CCCC)CCCC.O=S(=O)([N-]S(=O)(=O)C(F)(F)F)C(F)(F)F [tributylmethylammonium bis((trifluoromethyl)sulfonyl)imide] + c1ccccc1
[1], 343.15 K
Details	mass density [kg/m3]
x2 = 0	1224.15
x2 = 0.048	1220.37
x2 = 0.097	1216.25
x2 = 0.198	1204.31
x2 = 0.294	1188.64
x2 = 0.393	1168.17
x2 = 0.506	1139.35
x2 = 0.596	1112.34
x2 = 0.701	1076.48
x2 = 0.738	1062.44
x2 = 0.774	1048.36
x2 = 0.801	1037.22
x2 = 0.823	1028.14
x2 = 0.85	1016.43
x2 = 0.865	1010.24

CCCC[N+](C)(C)C.O=S(=O)([N-]S(=O)(=O)C(F)(F)F)C(F)(F)F [butyltrimethylammonium bis(trifluoromethylsulfonyl)imide]
Details	mass density
[2], 343.15 K	1348.32 kg/m3 and 1346.21 kg/m3

CCCC[N+]1(C)CCCC1.N#CN=C=[N-] [1-butyl-1-methylpyrrolidinium dicyanamide] + Cc1ccccc1C
[1], 283.15 K
Details	mass density [kg/m3]
x2 = 0	1022.97
x2 = 0.001	1022.98
x2 = 0.102	1018.02
x2 = 0.202	1011.22
x2 = 0.305	1005.51
x2 = 0.385	999.83
x2 = 0.433	997.35

CCCC[N+](C)(C)C.O=S(=O)([N-]S(=O)(=O)C(F)(F)F)C(F)(F)F [butyltrimethylammonium bis(trifluoromethylsulfonyl)imide] + c1ccccc1
[1], 343.15 K
Details	mass density [kg/m3]
x2 = 0	1348.32
x2 = 0.096	1335.57
x2 = 0.2	1316.52
x2 = 0.308	1288.49
x2 = 0.414	1262.43
x2 = 0.512	1229.56
x2 = 0.613	1185.89
x2 = 0.762	1105.62

CCCC[N+](C)(CCCC)CCCC.O=S(=O)([N-]S(=O)(=O)C(F)(F)F)C(F)(F)F [tributylmethylammonium bis((trifluoromethyl)sulfonyl)imide] + Cc1cccc(C)c1
[1], 343.15 K
Details	mass density [kg/m3]
x2 = 0	1224.18
x2 = 0.148	1203.79
x2 = 0.262	1185.69
x2 = 0.363	1165.61
x2 = 0.498	1130.77
x2 = 0.605	1095.81
x2 = 0.708	1059.94

CCCC[N+]1(C)CCCC1.N#CN=C=[N-] [1-butyl-1-methylpyrrolidinium dicyanamide] + c1ccccc1
[1], 283.15 K
Details	mass density [kg/m3]
x2 = 0	1021.84
x2 = 0.051	1020.09
x2 = 0.099	1018.22
x2 = 0.199	1014.33
x2 = 0.293	1009.95
x2 = 0.401	1004.03
x2 = 0.505	996.7
x2 = 0.61	987.41
x2 = 0.637	984.55
x2 = 0.665	981.11
x2 = 0.69	978.4
x2 = 0.718	973.87

CCCC[N+]1(C)CCCC1.O=S(=O)([N-]S(=O)(=O)C(F)(F)F)C(F)(F)F + Cc1ccccc1C
[1], 283.15 K
Details	mass density [kg/m3]
x2 = 0	1407.6
x2 = 0.21	1360.77
x2 = 0.409	1303.44
x2 = 0.622	1224.4
x2 = 0.673	1207.6

CCCC[N+]1(C)CCCC1.O=S(=O)([O-])C(F)(F)F [1-butyl-1-methylpyrrolidinium trifluoromethanesulfonate] + Cc1ccccc1C
[1], 283.15 K
Details	mass density [kg/m3]
x2 = 0	1263.17
x2 = 0.054	1252.3
x2 = 0.107	1243.62
x2 = 0.19	1225.81
x2 = 0.308	1197.9
x2 = 0.399	1174.56
x2 = 0.451	1160.97

CCCC[N+](C)(C)C.O=S(=O)([N-]S(=O)(=O)C(F)(F)F)C(F)(F)F [butyltrimethylammonium bis(trifluoromethylsulfonyl)imide] + Cc1ccc(C)cc1
[1], 343.15 K
Details	mass density [kg/m3]
x2 = 0	1348.32
x2 = 0.056	1341.21
x2 = 0.096	1332.06
x2 = 0.196	1307.74
x2 = 0.307	1273.97
x2 = 0.414	1235.93
x2 = 0.486	1205.85

CCCC[N+]1(C)CCCC1.O=S(=O)([N-]S(=O)(=O)C(F)(F)F)C(F)(F)F
Details	mass density
[2], 283.15 K	1410.45 kg/m3 and 1407.6 kg/m3

CCCC[N+]1(C)CCCC1.N#CN=C=[N-] [1-butyl-1-methylpyrrolidinium dicyanamide] + CCc1ccccc1
[1], 283.15 K
Details	mass density [kg/m3]
x2 = 0	1022.97
x2 = 0.044	1020.28
x2 = 0.11	1016.49
x2 = 0.2	1010.5
x2 = 0.307	1002.43
x2 = 0.359	997.98
x2 = 0.397	994.71

CCCC[N+](C)(C)C.O=S(=O)([N-]S(=O)(=O)C(F)(F)F)C(F)(F)F [butyltrimethylammonium bis(trifluoromethylsulfonyl)imide] + CCc1ccccc1
[1], 343.15 K
Details	mass density [kg/m3]
x2 = 0	1348.32
x2 = 0.037	1345.32
x2 = 0.099	1330.93
x2 = 0.245	1295.53
x2 = 0.309	1271.7
x2 = 0.397	1243.17
x2 = 0.448	1221.88
x2 = 0.498	1201.31
